Results published in ChEMBL document CHEMBL5335847, “Model of P-Glycoprotein Ligand Binding and Validation with Efflux Substrate Matched Pairs” (J Med Chem, 2024).
pKi: −log10 of the molar value.

Key:
Mu-type opioid receptor = Mu-type opioid receptor (Rattus norvegicus, UniProt P33535); experiment: Antagonist activity at mu-opioid receptor in rat thalamus membrane assessed as inhibition of DAMGO-stimulated [35S]GTPgammaS binding incubated for 2 hrs by liquid scintillation spectrophotometry; type: functional, cell membranes
P-gp (ABCB1) = P-gp (ABCB1) (Homo sapiens, UniProt P08183); experiment: Substrate activity at P-gp in human Caco-2 cells assessed as efflux ratio measured for 2 hrs by HPLC analysis; type: ADME, cell-based
[1] = Apparent permeability of the compound across apical to basolateral side in human Caco-2 cells measured for 2 hrs by HPLC analysis; type: ADME, cell-based

Sequence of P-gp (ABCB1) (P08183 whole entry): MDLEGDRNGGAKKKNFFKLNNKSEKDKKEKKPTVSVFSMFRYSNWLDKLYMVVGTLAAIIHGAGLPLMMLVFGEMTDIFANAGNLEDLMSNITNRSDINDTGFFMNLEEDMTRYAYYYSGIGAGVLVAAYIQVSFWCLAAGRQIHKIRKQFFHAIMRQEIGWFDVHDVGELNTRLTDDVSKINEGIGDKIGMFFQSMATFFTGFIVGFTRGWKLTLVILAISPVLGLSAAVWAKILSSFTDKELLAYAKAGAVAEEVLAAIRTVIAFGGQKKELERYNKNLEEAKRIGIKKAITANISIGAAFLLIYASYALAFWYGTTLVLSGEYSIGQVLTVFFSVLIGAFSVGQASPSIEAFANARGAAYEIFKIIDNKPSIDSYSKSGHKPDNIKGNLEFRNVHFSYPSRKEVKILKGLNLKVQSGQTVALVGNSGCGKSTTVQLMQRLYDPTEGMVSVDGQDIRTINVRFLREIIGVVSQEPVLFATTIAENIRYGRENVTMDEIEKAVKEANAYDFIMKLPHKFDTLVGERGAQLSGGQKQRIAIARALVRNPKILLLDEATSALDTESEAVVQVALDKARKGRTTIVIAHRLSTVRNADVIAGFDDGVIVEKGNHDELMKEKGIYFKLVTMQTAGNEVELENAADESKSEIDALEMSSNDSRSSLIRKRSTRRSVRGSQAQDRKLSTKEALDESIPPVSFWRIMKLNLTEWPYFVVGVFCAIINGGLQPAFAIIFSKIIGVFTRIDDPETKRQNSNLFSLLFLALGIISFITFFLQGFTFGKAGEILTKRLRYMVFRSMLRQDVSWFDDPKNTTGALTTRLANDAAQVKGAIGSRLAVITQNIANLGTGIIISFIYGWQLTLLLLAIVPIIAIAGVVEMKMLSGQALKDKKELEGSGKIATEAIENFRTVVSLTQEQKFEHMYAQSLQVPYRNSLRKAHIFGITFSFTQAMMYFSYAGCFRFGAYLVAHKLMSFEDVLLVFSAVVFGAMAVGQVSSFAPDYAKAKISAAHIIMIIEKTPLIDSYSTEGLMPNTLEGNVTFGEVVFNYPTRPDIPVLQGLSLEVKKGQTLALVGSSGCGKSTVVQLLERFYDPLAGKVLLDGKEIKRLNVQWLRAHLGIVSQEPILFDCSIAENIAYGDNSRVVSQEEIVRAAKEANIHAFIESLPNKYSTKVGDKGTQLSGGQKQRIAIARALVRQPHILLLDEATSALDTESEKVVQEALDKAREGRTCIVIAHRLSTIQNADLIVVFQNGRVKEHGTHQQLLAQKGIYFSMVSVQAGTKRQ
Sequence of Mu-type opioid receptor (P33535 whole entry): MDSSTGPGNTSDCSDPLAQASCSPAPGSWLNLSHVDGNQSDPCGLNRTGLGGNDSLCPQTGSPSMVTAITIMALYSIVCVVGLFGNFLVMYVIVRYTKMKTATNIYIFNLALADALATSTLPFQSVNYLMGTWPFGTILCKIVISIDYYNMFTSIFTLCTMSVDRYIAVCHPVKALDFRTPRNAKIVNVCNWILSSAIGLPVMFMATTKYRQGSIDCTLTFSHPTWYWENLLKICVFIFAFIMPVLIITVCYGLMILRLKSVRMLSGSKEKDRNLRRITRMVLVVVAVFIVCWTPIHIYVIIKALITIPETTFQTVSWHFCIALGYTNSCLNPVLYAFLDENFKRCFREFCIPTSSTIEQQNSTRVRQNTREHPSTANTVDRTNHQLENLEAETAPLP

Row | Compound | pKi (Mu-type opioid receptor) | efflux ratio at 2 h (P-gp (ABCB1)) | Papp A→B at 2 h [1]
1 | O=C(N[C@@H]1CC[C@@]2(O)[C@H]3Cc4ccc(O)c5c4[C@@]2(CCN3CC2CC2)[C@H]1O5)c1cc2ccccc2cn1 | 8.46 | 1.3 | 3 ×10⁻⁶ cm/s
2 | O=C(N[C@@H]1CC[C@@]2(O)[C@H]3Cc4ccc(O)c5c4[C@@]2(CCN3CC2CC2)[C@H]1O5)c1ccncc1 | 8.32 | > 10 | < 0.7 ×10⁻⁶ cm/s
